The target in experiment [1] is T1, human Farnesoid X receptor ligand-binding domain/Gal4 DNA binding domain chimera (Homo sapiens, UniProt Q96RI1).
T1 construct: host or cells: FXR-UAS-bla HEK 293T (CellSensor UAS-bla HEK 293T)
T1 sequence (Q96RI1 262-486 limits assumed): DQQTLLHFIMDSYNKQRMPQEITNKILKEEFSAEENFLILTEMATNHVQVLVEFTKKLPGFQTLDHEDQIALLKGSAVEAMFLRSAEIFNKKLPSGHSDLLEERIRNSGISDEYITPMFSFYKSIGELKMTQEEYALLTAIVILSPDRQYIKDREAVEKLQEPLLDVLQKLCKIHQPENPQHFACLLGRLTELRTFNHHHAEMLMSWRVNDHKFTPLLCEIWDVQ
The experiment in a line: Cell-based assay of FXR activation (FXR-UAS-bla HEK 293T beta-lactamase reporter). The note with it: for Emax: HEK-293T, read-out: Cellular % Efficacy. Here is the method:
FXR activation was measured using a cell line and procedure obtained from Life Technologies (Cat #K1691). […] Activation of FXR by bound ligands results in transcriptional activation of the beta-lactamase reporter gene, which is detected via assay of beta-lactamase activity.
Cells are harvested and diluted into assay medium containing phenol red-free DMEM supplemented with 2% Charcoal-stripped FBS, pyruvate, non-essential amino acids. Cells are then transferred to a 384 well assay plate. Test compounds are dissolved in DMSO and a 3-fold serial dilution series is generated, then further diluted into assay medium. Compounds in assay medium are added to cells in the 384 well plate and allowed to incubate 16 h at 37 C in the presence of 5% CO2.
A FRET-based […] (CCF4) is loaded into cells as its acetomethoxy ester. Intracellular esterases liberate free CCF4, a cephalosporin core linking 7-hydroxycoumarin to fluorescein. In the presence of beta-lactamase activity produced in the presence of FXR agonists, cleavage of CCF4 spatially separates the two dyes and disrupts FRET, so that exciting the coumarin at 409 nm now produces a blue fluorescence signal at 447 nm. The change in FRET signal is plotted against the test compound concentration and fit to a 3-parameter logistical equation.

For experiment [2], the target named is T2, ligand binding domain of human FXR (Homo sapiens, UniProt Q96RI1).
T2 construct: purchased Thermofisher (LanthaScreen) PV4833
T2 sequence (Q96RI1 262-486 limits assumed): T1 sequence (Q96RI1 262-486 limits assumed)
The experiment in a line: biochemical. The note with it: for Emax: extent of activation relative to GW4064, read-out: Ligand Binding % Efficacy; for EC50: −log EC50, concentration required to produce 50% activation, FRET 520 nm/495 nm, 1 hour at room temperature, read-out: Ligand Binding pEC50 (converted). Here is the method: The affinity of FXR ligands for the ligand binding domain of FXR was determined using a commercially available human FXR ligand binding assay (LanthaScreen, Thermofisher Cat #PV4833). […] Binding of FXR ligands to the FXR ligand binding domain promotes binding of the fluorescein-labelled SRC2-2 peptide. This causes a FRET signal between the terbium-labelled anti-GST antibody and the fluorescein-labelled SRC peptide which are both bound to the FXR ligand binding domain.
Test compounds are dissolved in DMSO and a 3-fold serial dilution series is generated, then further diluted into assay buffer. The compounds are mixed with 5 nM GST-tagged FXR ligand binding domain, 5 nM Tb-labelled anti-GST antibody and 500 nM fluorescein-labelled SRC2-2 peptide in a pH7.4 buffer. The reaction is incubated at room temperature for 1 hour, then the FRET signal is measured as the ratio of the 520 nm/495 nm emission following excitation at 340 nm. The change in FRET signal is plotted against the test article concentration and fit to a 3-parameter logistical equation.

For the compound `O=C(O)c1cc([C@@H]2CCOC2)c2nc(N3C[C@@H]4C[C@H]3C[C@H]4OCc3c(-c4c(Cl)cccc4Cl)cnn3C3CC3)sc2c1` (single isomer, unassigned) [Compound I-50], in experiment [1], the EC50 was 100 nM and the Emax is 100%. In experiment [2], the Emax is 78% and the EC50 is 100 nM.

As for `O=C(O)c1cc([C@H]2CCOC2)c2nc(N3C[C@@H]4C[C@H]3C[C@H]4OCc3c(-c4c(Cl)cccc4Cl)cnn3C3CC3)sc2c1` (single isomer, unassigned) [Compound I-51], in experiment [1], the EC50 is 158 nM and the Emax is 100%. In experiment [2], the Emax came to 96% and the EC50 is 251 nM.

On to `O=C(O)c1cc([C@H]2CCOC2)c2nc(N3C[C@@H]4C[C@H]3C[C@H]4OCc3c(C4CC4)nnn3-c3c(Cl)cccc3Cl)sc2c1` (single isomer, unassigned) [Compound I-58], for which, in experiment [1], the EC50 is 1 nM and the Emax is 102%. For the same compound, in experiment [2], the Emax came to 145% and the EC50 was 2 nM.

For the compound `O=C(O)c1cc([C@@H]2CCOC2)c2nc(N3C[C@@H]4C[C@H]3C[C@H]4OCc3c(C4CC4)nnn3-c3c(Cl)cccc3Cl)sc2c1` (single isomer, unassigned) [Compound I-59], the EC50 was 2.51 nM in experiment [1] and 1.58 nM in experiment [2]. For the same compound, the Emax in experiment [1] stood at 100%; in experiment [2], 137%.

For the compound `O=C(O)c1cc([C@H]2CCOC2)c2nc(N3C[C@@H]4C[C@H]3C[C@H]4OCc3c(-c4c(Cl)cccc4Cl)nnn3C3CC3)sc2c1` (single isomer, unassigned) [Compound I-65], in experiment [1], the EC50 was 10 nM and the Emax came out at 108%. Besides, in experiment [2], the Emax came to 136% and the EC50 was 25.1 nM.

For the compound `O=C(O)c1cc([C@@H]2CCOC2)c2nc(N3C[C@@H]4C[C@H]3C[C@H]4OCc3c(-c4c(Cl)cccc4Cl)nnn3C3CC3)sc2c1` (single isomer, unassigned) [Compound I-66], the EC50 in experiment [1] and in experiment [2] was 15.8 nM throughout. Also, the Emax is 110% in experiment [1] and 140% in experiment [2].

As to `O=C(O)c1ccc(N2C[C@@H]3C[C@H]2C[C@H]3OCc2c(C3CC3)cnn2-c2c(Cl)cccc2Cl)cc1` [Compound I-1, 4-[(1S,4S,5R)-5-{[4-cyclopropyl-1-(2,6-dichlorophenyl)-1H-pyrazol-5-yl]methoxy}-2-azabicyclo[2.2.1]heptan-2-yl]benzoic acid], the EC50 in experiment [1] was 1.58 nM; in experiment [2] it was 6.31 nM. In addition, the results for the Emax in experiment [1] and in experiment [2] were 110% and 121%, respectively.

In the case of `O=C(O)c1ccc(N2C[C@@H]3C[C@H]2C[C@H]3OCc2c(C3CC3)cnn2-c2c(Cl)cccc2Cl)cc1F` [Compound I-2, 4-[(1S,4S,5R)-5-{[4-cyclopropyl-1-(2,6-dichlorophenyl)-1H-pyrazol-5-yl]methoxy}-2-azabicyclo[2.2.1]heptan-2-yl]-2-fluorobenzoic acid], in experiment [1], the EC50 is 2 nM and the Emax stood at 104%. Further, in experiment [2], the Emax stood at 133% and the EC50 is 5.01 nM.

`O=C(O)c1ccc(N2C[C@@H]3C[C@H]2C[C@H]3OCc2c(C3CC3)cnn2-c2c(F)cccc2F)cc1F` [Compound I-10, 4-[(1S,4S,5R)-5-{[4-cyclopropyl-1-(2,6-difluorophenyl)-1H-pyrazol-5-yl]methoxy}-2-azabicyclo[2.2.1]heptan-2-yl]-2-fluorobenzoic acid]: the EC50 is 31.6 nM in experiment [1] and 158 nM in experiment [2]. Also, the Emax is 118% in experiment [1] and 164% in experiment [2].

Turning to `C[C@@H]1[C@@H]2C[C@@H](C[C@H]2OCc2c(C3CC3)cnn2-c2c(Cl)cccc2Cl)N1c1ccc(C(=O)NS(=O)(=O)C2CCOCC2)c(F)c1` [Compound I-28, 4-((1S,3R,4S,5R)-5-((4-cyclopropyl-1-(2,6-dichlorophenyl)-1H-pyrazol-5-yl)methoxy)-3-methyl-2-azabicyclo[2.2.1]heptan-2-yl)-2-fluoro-N-((tetrahydro-2H-pyran-4-yl)sulfonyl)benzamide], in experiment [2], the Emax is 56% and the EC50 is 398 nM.

Take `C[C@@H]1[C@@H]2C[C@@H](C[C@H]2OCc2c(C3CC3)cnn2-c2c(Cl)cccc2Cl)N1c1ccc(C(=O)NS(=O)(=O)C2CC2)c(F)c1` [Compound I-29, N-(cyclopropanesulfonyl)-4-[(1S,3R,4S,5R)-5-{[4-cyclopropyl-1-(2,6-dichlorophenyl)-1H-pyrazol-5-yl]methoxy}-3-methyl-2-azabicyclo[2.2.1]heptan-2-yl]-2-fluorobenzamide]: in experiment [2], the Emax came to 59% and the EC50 was 200 nM.

With `O=C(O)CCc1ccc(N2C[C@@H]3C[C@H]2C[C@H]3OCc2c(C3CC3)cnn2-c2c(F)cccc2F)c(F)c1` [Compound I-35, 3-{4-[(1S,4S,5R)-5-{[4-cyclopropyl-1-(2,6-difluorophenyl)-1H-pyrazol-5-yl]methoxy}-2-azabicyclo[2.2.1]heptan-2-yl]-3-fluorophenyl}propanoic acid], in experiment [2], the Emax was found to be 152% and the EC50 is 631 nM.

For the compound `Cc1cccc(C)c1-n1ncc(C2CC2)c1CO[C@@H]1C[C@@H]2C[C@H]1CN2c1ccc(CCC(=O)O)cc1F` [Compound I-36, 3-{4-[(1S,4S,5R)-5-{[4-cyclopropyl-1-(2,6-dimethylphenyl)-1H-pyrazol-5-yl]methoxy}-2-azabicyclo[2.2.1]heptan-2-yl]-3-fluorophenyl}propanoic acid], in experiment [2], the Emax turned out to be 134% and the EC50 is 158 nM.

Turning to `Cc1cccc(Cl)c1-n1ncc(C2CC2)c1CO[C@@H]1C[C@@H]2C[C@H]1CN2c1ccc(CCC(=O)O)cc1F` [Compound I-37, 3-{4-[(1S,4S,5R)-5-{[1-(2-chloro-6-methylphenyl)-4-cyclopropyl-1H-pyrazol-5-yl]methoxy}-2-azabicyclo[2.2.1]heptan-2-yl]-3-fluorophenyl}propanoic acid], in experiment [2], the Emax was determined as 176% and the EC50 is 39.8 nM.

Take `O=C(O)CCc1ccc(N2C[C@@H]3C[C@H]2C[C@H]3OCc2c(C3CC3)cnn2-c2c(F)cccc2Cl)c(F)c1` [Compound I-38, 3-{4-[(1S,4S,5R)-5-{[1-(2-chloro-6-fluorophenyl)-4-cyclopropyl-1H-pyrazol-5-yl]methoxy}-2-azabicyclo[2.2.1]heptan-2-yl]-3-fluorophenyl}propanoic acid]: in experiment [2], the Emax worked out at 185% and the EC50 was 158 nM.

On to `O=C(O)CCc1ccc(N2C(=O)[C@@H]3C[C@H]2C[C@H]3OCc2c(C3CC3)cnn2-c2c(Cl)cccc2Cl)c(F)c1` [Compound I-39, 3-{4-[(1S,4R,5R)-5-{[4-cyclopropyl-1-(2,6-dichlorophenyl)-1H-pyrazol-5-yl]methoxy}-3-oxo-2-azabicyclo[2.2.1]heptan-2-yl]-3-fluorophenyl}propanoic acid], for which the Emax in experiment [2] was found to be 136%.

For the compound `O=C(O)C1CC(c2ccc(N3C[C@@H]4C[C@H]3C[C@H]4OCc3c(C4CC4)cnn3-c3c(Cl)cccc3Cl)c(F)c2)C1` (stereo partly drawn) [Compound I-40, 3-{4-[(1S,4S,5R)-5-{[4-cyclopropyl-1-(2,6-dichlorophenyl)-1H-pyrazol-5-yl]methoxy}-2-azabicyclo[2.2.1]heptan-2-yl]-3-fluorophenyl}cyclobutane-1-carboxylic acid], in experiment [2], the Emax came out at 156% and the EC50 is 31.6 nM.
